# From ChEMBL document CHEMBL1153672, “Synthesis and biological activity of a novel class of cephalosporins with a oxadiazolyl hydroxypyridone moiety at C-7” (1995)
# Legend:
# Type in all cases: functional
# Pseudomonas aeruginosa [1] = experiment: In vitro antibacterial activity against Pseudomonas aeruginosa E-2
# Pseudomonas aeruginosa [2] = experiment: In vitro antibacterial activity against Pseudomonas aeruginosa IFO12689
# Staphylococcus aureus = experiment: In vitro antibacterial activity against Staphylococcus aureus Smith
# Escherichia coli = experiment: In vitro antibacterial activity against Escherichia coli ML4707
# Mus musculus [3] = experiment: Tested in vivo for the therapeutic efficacy against systemic infection caused by Pseudomonas aeruginosa E-2 in mice at a challenge dose of 8*10e4 (cfu/mouse) + 5%mucin
# Mus musculus [4] = experiment: Tested in vivo for the therapeutic efficacy against systemic infection caused by Staphylococcus aureus Smith in mice at a challenge dose of 5*10e6 (cfu/mouse) + 5%mucin
# Mus musculus [5] = experiment: Tested in vivo for the therapeutic efficacy against systemic infection caused by Staphylococcus aureus Smith in mice at a challenge dose of 3.3*10e6 (cfu/mouse) + 5%mucin
# Mus musculus [6] = species on record: Mus musculus; experiment: Tested for the therapeutic efficacy against systemic infection caused by Pseudomonas aeruginosa E-2 in mice at a challenge dose of 7.9*10e4 (cfu/mouse) + 5%mucin
# Pseudomonas aeruginosa [7] = experiment: In vitro for the antibacterial activity against Pseudomonas aeruginosa E-2
Structure (SMILES),MIC (Pseudomonas aeruginosa [1]) [µg/mL],MIC (Pseudomonas aeruginosa [2]) [µg/mL],MIC (Staphylococcus aureus) [µg/mL],MIC (Escherichia coli) [µg/mL],ED50 (Mus musculus [3]) [mg/kg],ED50 (Mus musculus [4]) [mg/kg],ED50 (Mus musculus [5]) [mg/kg],ED50 (Mus musculus [6]) [mg/kg],MIC (Pseudomonas aeruginosa [7]) [µg/mL]
Nc1nc(/C(=N/OCCSc2nnc(-c3cc(O)c(O)cn3)o2)C(=O)N[C@@H]2C(=O)N3C(C(=O)[O-])=C(C[n+]4ccc(C(=O)[O-])cc4)CS[C@H]23)cs1.[Na+],3.13,0.39,25,0.0125,–,–,–,–,–
Nc1nc(/C(=N/OCCSc2nnc(-c3cc(O)c(O)cn3)o2)C(=O)N[C@@H]2C(=O)N3C(C(=O)[O-])=C(CSc4cc[n+](CC(=O)[O-])cc4)CS[C@H]23)cs1.[Na+],1.56,0.39,12.5,≤ 0.0063,25,–,–,–,–
Nc1nc(/C(=N/OCCSc2nnc(-c3cc(O)c(O)cn3)o2)C(=O)[N-][C@@H]2C(=O)N3C(C(=O)[O-])=C(C[n+]4ccccc4)CS[C@H]23)cs1.[Na+],3.13,0.78,3.13,0.025,–,–,–,–,–
CC[n+]1ccc(SCC2=C(C(=O)[O-])N3C(=O)[C@@H]([N-]C(=O)/C(=N\OCCSc4nnc(-c5cc(O)c(O)cn5)o4)c4csc(N)n4)[C@H]3SC2)cc1.[Na+],0.39,0.78,3.13,≤ 0.0063,19,< 0.6,–,–,–
CN(C)CC[n+]1ccc(SCC2=C(C(=O)[O-])N3C(=O)[C@@H]([N-]C(=O)/C(=N\OCCSc4nnc(-c5cc(O)c(O)cn5)o4)c4csc(N)n4)[C@H]3SC2)cc1.[Na+],0.78,3.13,6.25,0.025,–,–,–,–,–
Nc1nc(/C(=N/OCc2cc(O)c(O)cn2)C(=O)[N-][C@@H]2C(=O)N3C(C(=O)[O-])=C(CSc4cc[n+](CCO)cc4)CS[C@H]23)cs1.[Na+],–,–,3.13,–,–,–,0.86,> 40,6.25
Nc1nc(/C(=N/OCCSc2nnc(-c3ccccn3)o2)C(=O)[N-][C@@H]2C(=O)N3C(C(=O)[O-])=C(CSc4cc[n+](CCO)cc4)CS[C@H]23)cs1.[Na+],–,–,0.39,–,–,–,0.43,> 40,100
NC(=O)c1cc[n+](CC2=C(C(=O)[O-])N3C(=O)[C@@H]([N-]C(=O)/C(=N\OCCSc4nnc(-c5cc(O)c(O)cn5)o4)c4csc(N)n4)[C@H]3SC2)cc1.[Na+],3.13,1.56,6.25,0.025,–,–,–,–,–
Nc1nc(/C(=N/OCCSc2nnc(-c3ccc(O)c(O)c3)o2)C(=O)[N-][C@@H]2C(=O)N3C(C(=O)[O-])=C(CSc4cc[n+](CCO)cc4)CS[C@H]23)cs1.[Na+],–,–,0.39,–,–,–,0.86,34,0.39
Nc1nc(/C(=N/OCCSc2nnc(-c3cc(O)c(O)cn3)o2)C(=O)[N-][C@@H]2C(=O)N3C(C(=O)[O-])=C(CSc4cc[n+](CCO)cc4)CS[C@H]23)cs1.[Na+],0.39,0.78,3.13,≤ 0.0063,4.2,< 0.3,0.86,7.2,–
Nc1nc(/C(=N/OCCSc2nnc(-c3cc(O)c(O)cn3)o2)C(=O)[N-][C@@H]2C(=O)N3C(C(=O)[O-])=C(C[n+]4ccc(SCCO)cc4)CS[C@H]23)cs1.[Na+],0.78,0.78,3.13,0.0125,–,–,–,–,–
Nc1nc(/C(=N/OCCSc2nnc(-c3cc(O)c(O)cn3)o2)C(=O)N[C@@H]2C(=O)N3C(C(=O)[O-])=C(CSc4nc5ccccc5s4)CS[C@H]23)cs1.[Na+],0.78,0.78,3.13,0.0125,> 100,–,–,–,–
Cc1cc(SCC2=C(C(=O)[O-])N3C(=O)[C@@H](NC(=O)/C(=N\OCCSc4nnc(-c5cc(O)c(O)cn5)o4)c4csc(N)n4)[C@H]3SC2)n2nc(CO)nc2n1.[Na+],0.2,0.39,6.25,< 0.0063,–,–,–,–,–
Nc1nc(/C(=N/OCCSc2nnc(-c3cc(O)c(O)cn3)o2)C(=O)N[C@@H]2C(=O)N3C(C(=O)[O-])=C(CSc4nnc(-c5ccncc5)o4)CS[C@H]23)cs1.[Na+],0.78,0.39,6.25,≤ 0.0063,–,–,–,–,–
Nc1nc(/C(=N/OCCSc2nnc(-c3cc(O)c(O)cn3)o2)C(=O)N[C@@H]2C(=O)N3C(C(=O)[O-])=C(CSc4nnc(N)s4)CS[C@H]23)cs1.[Na+],0.2,0.2,6.25,≤ 0.0063,35,> 20,–,–,–
Nc1nc(/C(=N/OCCSc2nnc(-c3cc(O)c(O)cn3)o2)C(=O)N[C@@H]2C(=O)N3C(C(=O)[O-])=C(CSc4ccccn4)CS[C@H]23)cs1.[Na+],0.39,0.039,6.25,≤ 0.0063,–,–,–,–,–
Nc1nc(/C(=N/OCCSc2nnc(-c3cc(O)c(O)cn3)o2)C(=O)N[C@@H]2C(=O)N3C(C(=O)[O-])=C(CSc4cnns4)CS[C@H]23)cs1.[Na+],0.78,0.2,3.13,≤ 0.0063,–,–,–,–,–
CO/N=C(\C(=O)N[C@@H]1C(=O)N2C(C(=O)O)=C(COC(C)=O)CS[C@H]12)c1csc(N)n1 [CEFOTAXIME],25,25,1.56,0.0125,–,4.6,3,–,–
CO/N=C(\C(=O)N[C@@H]1C(=O)N2C(C(=O)[O-])=C(C[n+]3cccc4c3CCC4)CS[C@H]12)c1csc(N)n1 [CEFPIROME],–,–,–,–,–,–,1.5,–,–
CC(C)(O/N=C(\C(=O)N[C@@H]1C(=O)N2C(C(=O)[O-])=C(C[n+]3ccccc3)CS[C@H]12)c1csc(N)n1)C(=O)O [CEFTAZIDIME],1.56,3.13,3.13,0.05,55,8.1,–,> 100,–
